Experimental data taken from DBAASP.
Values after ≈ are worked out from the molar mass of the structure shown. Values joined by “and” are separate entries in the source; they are usually repeats but may differ in a detail not shown here. Equal values may be shown once.

Legend:
Assay in all cases: ≥ marks a high value that may be exact or a test limit, other limits are often not marked, values filed in µg/mL are converted to µM
[1] = tested on: Staphylococcus aureus ATCC 25923
[2] = tested on: Escherichia coli ATCC 25922
[3] = tested on: Pseudomonas aeruginosa ATCC 27853

| MIC [1] | MIC [2] | MIC [3] [µM] | SMILES |
| --- | --- | --- | --- |
| 1.44 µM (≈ 4 µg/mL) | 1.44 µM (≈ 4 µg/mL) | 1.44 (≈ 4 µg/mL) | C[C@H](NC(=O)[C@H](Cc1ccccc1)NC(=O)[C@H](C)NC(=O)[C@H](Cc1ccccc1)NC(=O)[C@H](CCCCN)NC(=O)[C@H](C)NC(=O)[C@H](Cc1ccccc1)NC(=O)[C@H](CCCCN)NC(=O)[C@H](CCCCN)NC(=O)[C@H](C)NC(=O)[C@H](Cc1ccccc1)NC(=O)[C@H](CCCCN)NC(=O)[C@H](CCCCN)NC(=O)[C@H](Cc1ccccc1)NC(=O)[C@H](CCCCN)NC(=O)[C@H](CCCCN)NC(=O)[C@H](C)NC(=O)[C@H](Cc1ccccc1)NC(=O)[C@H](CCCCN)NC(=O)[C@H](CCCCN)NC(=O)[C@H](C)NC(=O)[C@@H](N)Cc1ccccc1)C(=O)N[C@@H](Cc1ccccc1)C(N)=O [FAKKFAKKFKKFAKKFAKFAFAF] |
| – | 16.7 µM and 33.5 µM | – | CC[C@H](C)[C@H](NC(=O)[C@H](CCCCN)NC(=O)[C@H](CCCCN)NC(=O)[C@@H](NC(=O)[C@@H](NC(=O)[C@H](CCCCN)NC(=O)[C@H](Cc1ccccc1)NC(=O)[C@H](CC(C)C)NC(=O)CN)[C@@H](C)CC)[C@@H](C)CC)C(=O)N[C@@H](C)C(=O)N[C@@H](CCCCN)C(=O)N[C@@H](CO)C(=O)N[C@@H](Cc1ccccc1)C(N)=O [GLFKIIKKIAKSF] |
| – | 4.05 µM (≈ 12.5 µg/mL) | – | CC[C@H](C)[C@H](NC(=O)CNC(=O)[C@H](C)NC(=O)[C@@H](NC(=O)[C@H](CC(N)=O)NC(=O)[C@H](CCCCN)NC(=O)[C@H](C)NC(=O)[C@H](C)NC(=O)CNC(=O)[C@H](CCCCN)NC(=O)[C@@H](NC(=O)[C@@H](NC(=O)[C@H](CC(=O)O)NC(=O)[C@H](CC(C)C)NC(=O)[C@H](CC(C)C)NC(=O)[C@H](CC(C)C)NC(=O)CN)[C@@H](C)O)C(C)C)C(C)C)C(=O)N[C@@H](CC(C)C)C(=O)N[C@@H](CC(C)C)C(=O)N[C@@H](CC(N)=O)C(=O)N[C@@H](CCCCN)C(=O)N[C@@H](CC(C)C)C(=O)N[C@@H](CCCCN)C(=O)N[C@H]1CSSC[C@@H](C(=O)O)NC(=O)[C@H](CC(=O)O)NC(=O)CNC(=O)[C@H]([C@@H](C)O)NC(=O)[C@H](CCSC)NC(=O)[C@H](CCCCN)NC1=O [GLLLDTVKGAAKNVAGILLNKLKCKMTGDC] |
| – | 30 µM (≈ 88.1 µg/mL) | – | CC[C@H](C)[C@H](NC(=O)[C@@H](NC(=O)[C@H](CC(=O)O)NC(=O)[C@H](CC(C)C)NC(=O)[C@H](CC(C)C)NC(=O)[C@H](CCC(N)=O)NC(=O)CNC(=O)[C@H](C)NC(=O)[C@H](CC(C)C)NC(=O)[C@H](CC(N)=O)NC(=O)[C@H](CCCCN)NC(=O)[C@H](C)NC(=O)[C@H](C)NC(=O)[C@H](CC(N)=O)NC(=O)[C@H](CCCCN)NC(=O)[C@@H](NC(=O)[C@@H](NC(=O)[C@H](CC(=O)O)NC(=O)[C@H](CCSC)NC(=O)[C@H](CC(C)C)NC(=O)CN)[C@@H](C)O)C(C)C)[C@@H](C)O)C(=O)N[C@@H](CCCCN)C(=O)N[C@H]1CSSC[C@@H](C(=O)O)NC(=O)CNC(=O)[C@H]([C@@H](C)O)NC(=O)[C@H](CCSC)NC(=O)[C@H](CCCCN)NC1=O [GLMDTVKNAAKNLAGQLLDTIKCKMTGC] |
| 25 µM (≈ 64.1 µg/mL) | 100 µM (≈ 256 µg/mL) | – | CC[C@H](C)[C@H](NC(=O)[C@H](CCCCN)NC(=O)[C@H](CO)NC(=O)[C@H](C)NC(=O)[C@H](Cc1c[nH]c2ccccc12)NC(=O)CN)C(=O)NCC(=O)N[C@H](C(=O)N[C@@H](CCC(N)=O)C(=O)N[C@@H](CC(C)C)C(=O)NCC(=O)N[C@@H](CCCCN)C(=O)N[C@@H](CCSC)C(=O)N[C@@H](C)C(=O)N[C@@H](CCCCN)C(=O)N[C@H](C(=O)NCC(=O)N[C@@H](CC(C)C)C(=O)N[C@@H](CCCCN)C(=O)N[C@@H](CCC(=O)O)C(=O)N[C@@H](Cc1ccccc1)C(=O)N[C@H](C(=O)N[C@@H](CCC(N)=O)C(=O)N[C@@H](CO)C(=O)O)C(C)C)C(C)C)[C@@H](C)O [GWASKIGTQLGKMAKVGLKEFVQS] |
| > 64 µM and 32 µM | – | – | CC[C@H](C)[C@H](NC(=O)[C@H](CCCCN)NC(=O)[C@H](C)NC(=O)[C@H](CCSC)NC(=O)[C@@H](NC(=O)[C@H](CCCCN)NC(=O)[C@H](CC(C)C)NC(=O)[C@H](Cc1ccccc1)NC(=O)[C@@H](NC(=O)[C@H](CC(=O)O)NC(=O)CNC(=O)[C@H](Cc1c[nH]c2ccccc12)NC(=O)CN)[C@@H](C)O)[C@@H](C)O)C(=O)N[C@@H](C)C(=O)N[C@@H](CCCCN)C(=O)N[C@H](C(=O)NCC(=O)N1CCC[C@H]1C(=O)N[C@@H](CCCCN)C(=O)N[C@@H](CC(C)C)C(=O)N[C@@H](CC(C)C)C(=O)N[C@@H](Cc1cnc[nH]1)C(=O)N[C@@H](CO)C(=O)O)C(C)C [GWGDTFLKTMAKIAKVGPKLLHS] |
| – | > 100 µM | > 100 | CSCC[C@H](NC(=O)[C@@H](N)CCCCN)C(=O)N[C@@H](CCCCN)C(=O)N[C@@H](CCCCN)C(=O)N[C@@H](C)C(=O)N[C@@H](CC(C)C)C(=O)N[C@@H](CCC(N)=O)C(=O)N[C@@H](Cc1ccc(O)cc1)C(N)=O [KMKKALQY] |
| – | – | 32 (≈ 48.2 µg/mL) | CC(C)C[C@H](NC(=O)[C@H](Cc1ccccc1)NC(=O)[C@H](C)NC(=O)CNC(=O)[C@H](Cc1c[nH]c2ccccc12)NC(=O)[C@H](CC(N)=O)NC(=O)[C@@H](N)CC(C)C)C(=O)N[C@@H](CCCCN)C(=O)N[C@@H](Cc1cnc[nH]1)C(=O)N[C@@H](Cc1ccccc1)C(=O)N[C@@H](Cc1ccccc1)C(=O)N[C@@H](CCCCN)C(=O)O [LNWGAFLKHFFK] |
| – | – | 16 (≈ 22.7 µg/mL) | CC[C@H](C)[C@H](NC(=O)[C@H](C)NC(=O)CNC(=O)[C@H](Cc1c[nH]c2ccccc12)NC(=O)[C@H](CC(N)=O)NC(=O)[C@@H](N)CC(C)C)C(=O)N[C@@H](CCCCN)C(=O)N[C@@H](CCCCN)C(=O)N[C@@H](Cc1cnc[nH]1)C(=O)N[C@H](C(=O)N[C@H](C(=O)N[C@@H](CCCCN)C(=O)O)[C@@H](C)CC)[C@@H](C)CC [LNWGAIKKHIIK] |
| – | > 100 µM | > 100 | CC[C@H](C)[C@H](NC(=O)[C@H](Cc1ccc(O)cc1)NC(=O)[C@H](CCC(N)=O)NC(=O)[C@H](CC(C)C)NC(=O)[C@H](C)NC(=O)[C@H](CCCCN)NC(=O)[C@H](CCCCN)NC(=O)[C@@H](N)CCSC)C(=O)N[C@@H](CCCCN)C(=O)N[C@@H](CC(C)C)C(=O)N[C@@H](CC(C)C)C(=O)N[C@@H](CCCCN)C(=O)N[C@@H](CCC(=O)O)C(N)=O [MKKALQYIKLLKE] |
| – | 186 µM (≈ 256 µg/mL) | – | CSCC[C@H](NC(=O)[C@H](CCCN=C(N)N)NC(=O)[C@H](Cc1c[nH]c2ccccc12)NC(=O)[C@H](CCC(N)=O)NC(=O)[C@H](Cc1c[nH]c2ccccc12)NC(=O)[C@H](CCCN=C(N)N)NC(=O)[C@@H](N)CCCN=C(N)N)C(=O)N[C@@H](CCCCN)C(=O)N[C@@H](CCCCN)C(=O)O [RRWQWRMKK] |
| – | 32 µM (≈ 56.4 µg/mL) | – | CC(C)C[C@H](NC(=O)[C@H](Cc1ccccc1)NC(=O)[C@@H]1CCCN1C(=O)[C@H](Cc1c[nH]c2ccccc12)NC(=O)[C@H](Cc1c[nH]c2ccccc12)NC(=O)[C@H](Cc1c[nH]c2ccccc12)NC(=O)[C@H](C)NC(=O)[C@H](Cc1ccccc1)NC(=O)[C@H](CCCCN)NC(=O)[C@H](CCCCN)NC(=O)[C@@H](N)C(C)C)C(=O)N[C@@H](CCCCN)C(=O)N[C@@H](CCCCN)C(N)=O [VKKFAWWWPFLKK] |
| – | 8 µM (≈ 14.3 µg/mL) | – | CC(C)C[C@H](NC(=O)[C@H](Cc1ccccc1)NC(=O)[C@@H]1CCCN1C(=O)[C@H](C)NC(=O)[C@H](Cc1c[nH]c2ccccc12)NC(=O)[C@H](Cc1c[nH]c2ccccc12)NC(=O)[C@@H]1CCCN1C(=O)[C@H](Cc1ccccc1)NC(=O)[C@H](CCCN=C(N)N)NC(=O)[C@H](CCCN=C(N)N)NC(=O)[C@@H](N)C(C)C)C(=O)N[C@@H](CCCN=C(N)N)C(=O)N[C@@H](CCCN=C(N)N)C(N)=O [VRRFPWWAPFLRR] |
